Earlier results on 3 compounds are cited in patent publication US20030232369A1, “Molecular structure of RNA polymerase II” (priority 2002, published 2003).

Data set [1] deals with pol II. As to conditions: relative to α-amanitin.
In data set [2] the test system is pol II.

For `CCC(C)C1NC(=O)CNC(=O)C2Cc3c([nH]c4cc(O)ccc34)[S+]([O-])CC(NC(=O)CNC1=O)C(=O)NC(CC(N)=O)C(=O)N1CC(O)CC1C(=O)NC(C(C)CC)C(=O)N2` (centres unmarked) [amanullin], in the data set on pol II [1], the “reduction of inhibition (fold less inhibitory than α-amanitin)” value is “about 4 fold”.

Turning to `CC[C@H](C)[C@@H]1NC(=O)CNC(=O)[C@@H]2Cc3c([nH]c4cc(O)ccc34)[S+]([O-])C[C@@H](NC(=O)CNC1=O)C(=O)N[C@@H](CC(N)=O)C(=O)N1C[C@H](O)C[C@H]1C(=O)N[C@@H]([C@@H](C)[C@@H](O)CO)C(=O)N2` (stereo in doubt) [α-amanitin], in the data set on pol II [2], the effect on transcription result was “blocks both transcription initiation and elongation”; the “influence of α-amanitin binding on the affinity of pol II for nucleoside triphosphates” value is given as “little if any influence”. In addition, in the data set with pol II [2] (after addition of α-amanitin to a transcribing pol II complex), the “rate of translocation of pol II on DNA” value is “reduced from several thousand to only a few”.

With proamanullin, in the data set on pol II [1], the “reduction of inhibition (fold less inhibitory than α-amanitin)” value is recorded as “about 20,000 fold”.
